Laboratory results: patent US3960833A, “Butirosin A 3",5"-O-isopropylidene derivatives” (Bristol-Myers Company, priority 1975, dated 1976)
Converted amounts (≈) assume the structure as drawn. Read-outs that look alike come from different tables or passages of the source.

Experiments:
Test in all cases: MIC by Steers agar-dilution method on Mueller-Hinton medium
Format in all cases: cell-based
[1] = tested on: E. coli ML1630; conditions: Escherichia coli
Description: (§1) Illustrated below is a table showing the minimal inhibitory concentrations (MIC's) of butirosin A, 4'-deoxybutirosin A and compound 11 (BB-K186) against a variety of gram-positive and gram-negativebacteria as obtained by the Steers agar-dilution method on Mueller-Hinton medium.

[2] = tested on: E. coli A20895; conditions: Escherichia coli
Description: as §1

[3] = tested on: Ps. aeruginosa No. 130; conditions: Pseudomonas aeruginosa
Description: as §1

[4] = tested on: K. pneumoniae D11; conditions: Klebsiella pneumoniae
Description: as §1

[5] = tested on: E. coli NIHJ; conditions: Escherichia coli
Description: as §1

[6] = tested on: Ps. aeruginosa A9930; conditions: Pseudomonas aeruginosa
Description: as §1

[7] = tested on: S. aureus D137; conditions: Staphylococcus aureus
Description: as §1

[8] = tested on: Ent. cloacae A20364; conditions: Enterobacter cloacae
Description: as §1

[9] = tested on: S. aureus D193; conditions: Staphylococcus aureus
Description: as §1

[10] = tested on: Ser. marcescens A21247; conditions: Serratia marcescens
Description: as §1

[11] = tested on: Ps. aeruginosa A20635; conditions: Pseudomonas aeruginosa
Description: as §1

[12] = tested on: E. coli JR35/C600; conditions: Escherichia coli
Description: as §1

[13] = tested on: E. coli A20107; conditions: Escherichia coli
Description: as §1

[14] = tested on: Ps. aeruginosa A20896; conditions: Pseudomonas aeruginosa
Description: as §1

[15] = tested on: E. coli R5; conditions: Escherichia coli
Description: as §1

[16] = tested on: E. coli NR79/W677; conditions: Escherichia coli
Description: as §1

[17] = tested on: Ser. marcescens A20019; conditions: Serratia marcescens
Description: as §1

[18] = tested on: E. coli A20732; conditions: Escherichia coli
Description: as §1

[19] = tested on: Ps. aeruginosa A20601; conditions: Pseudomonas aeruginosa
Description: as §1

[20] = tested on: E. coli PO1495; conditions: Escherichia coli
Description: as §1

[21] = tested on: Pseudomonas sp. A20621
Description: as §1

[22] = tested on: S. aureus A20239; conditions: Staphylococcus aureus
Description: as §1

[23] = tested on: Pr. mirabilis A9554; conditions: Proteus mirabilis
Description: as §1

[24] = tested on: E. coli JR66/W677; conditions: Escherichia coli
Description: as §1

[25] = tested on: S. aureus Smith; conditions: Staphylococcus aureus
Description: as §1

[26] = tested on: Pr. vulgaris A9436; conditions: Proteus vulgaris
Description: as §1

[27] = tested on: Pr. morganii A20031; conditions: Morganella morganii
Description: as §1

[28] = tested on: K. pneumoniae 22-3038; conditions: Klebsiella pneumoniae, 223038
Description: as §1

[29] = tested on: Prov. stuartii A20894; conditions: Providencia stuartii
Description: as §1

[30] = tested on: Ps. aeruginosa GN-315; conditions: Pseudomonas aeruginosa, GN315
Description: as §1

[31] = tested on: S. aureus D133; conditions: Staphylococcus aureus
Description: as §1

[32] = tested on: Ent. cloacae A21006; conditions: Enterobacter cloacae
Description: as §1

## NCC[C@H](O)C(=O)N[C@@H]1C[C@H](N)[C@@H](O[C@H]2O[C@H](CN)C[C@H](O)[C@H]2N)[C@H](O[C@@H]2O[C@H](CO)[C@H](O)[C@H]2O)[C@H]1O [Bu-1975C1, 4'-deoxybutirosin A]
[1]; E. coli ML1630, Mueller-Hinton medium, read-out: MIC
  MIC: 3.1 µg/mL (≈ 5.75 µM)
[2]; E. coli A20895, Mueller-Hinton medium, read-out: MIC
  MIC: 3.1 µg/mL (≈ 5.75 µM)
[3]; Ps. aeruginosa No. 130, Mueller-Hinton medium, read-out: MIC
  MIC: 25 µg/mL (≈ 46.3 µM)
[4]; K. pneumoniae D11, Mueller-Hinton medium, read-out: MIC
  MIC: 0.8 µg/mL (≈ 1.48 µM)
[5]; E. coli NIHJ, Mueller-Hinton medium, read-out: MIC
  MIC: 1.6 µg/mL (≈ 2.97 µM)
[6]; Ps. aeruginosa A9930, Mueller-Hinton medium, read-out: MIC
  MIC: 1.6 µg/mL (≈ 2.97 µM)
[7]; S. aureus D137, Mueller-Hinton medium, read-out: MIC
  MIC: 25 µg/mL (≈ 46.3 µM)
[8]; Ent. cloacae A20364, Mueller-Hinton medium, read-out: MIC
  MIC: 3.1 µg/mL (≈ 5.75 µM)
[9]; S. aureus D193, Mueller-Hinton medium, read-out: MIC
  MIC: 3.1 µg/mL (≈ 5.75 µM)
[10]; Ser. marcescens A21247, Mueller-Hinton medium, read-out: MIC
  MIC: 6.3 µg/mL (≈ 11.7 µM)
[11]; Ps. aeruginosa A20635, Mueller-Hinton medium, read-out: MIC
  MIC: > 100 µg/mL
[12]
  MIC: 0.8 µg/mL (≈ 1.48 µM)
[13]; E. coli A20107, Mueller-Hinton medium, read-out: MIC
  MIC: 3.1 µg/mL (≈ 5.75 µM)
[14]; Ps. aeruginosa A20896, Mueller-Hinton medium, read-out: MIC
  MIC: 50 µg/mL (≈ 92.7 µM)
[15]; E. coli R5, Mueller-Hinton medium, read-out: MIC
  MIC: 3.1 µg/mL (≈ 5.75 µM)
[16]
  MIC: > 100 µg/mL
[17]; Ser. marcescens A20019, Mueller-Hinton medium, read-out: MIC
  MIC: 6.3 µg/mL (≈ 11.7 µM)
[18]; E. coli A20732, Mueller-Hinton medium, read-out: MIC
  MIC: 1.6 µg/mL (≈ 2.97 µM)
[19]; Ps. aeruginosa A20601, Mueller-Hinton medium, read-out: MIC
  MIC: 25 µg/mL (≈ 46.3 µM)
[20]
  MIC: 1.6 µg/mL (≈ 2.97 µM)
[21]; Pseudomonas sp. A20621, Mueller-Hinton medium, read-out: MIC
  MIC: > 100 µg/mL
[22]; S. aureus A20239, Mueller-Hinton medium, read-out: MIC
  MIC: 6.3 µg/mL (≈ 11.7 µM)
[23]; Pr. mirabilis A9554, Mueller-Hinton medium, read-out: MIC
  MIC: 1.6 µg/mL (≈ 2.97 µM)
[24]
  MIC: 6.3 µg/mL (≈ 11.7 µM)
[25]; S. aureus Smith, Mueller-Hinton medium, read-out: MIC
  MIC: 1.6 µg/mL (≈ 2.97 µM)
[26]; Pr. vulgaris A9436, Mueller-Hinton medium, read-out: MIC
  MIC: 0.8 µg/mL (≈ 1.48 µM)
[27]; Pr. morganii A20031, Mueller-Hinton medium, read-out: MIC
  MIC: 3.1 µg/mL (≈ 5.75 µM)
[28]; K. pneumoniae 22-3038, Mueller-Hinton medium, read-out: MIC
  MIC: 6.3 µg/mL (≈ 11.7 µM)
[29]; Prov. stuartii A20894, Mueller-Hinton medium, read-out: MIC
  MIC: > 100 µg/mL
[30]; Ps. aeruginosa GN-315, Mueller-Hinton medium, read-out: MIC
  MIC: > 100 µg/mL
[31]; S. aureus D133, Mueller-Hinton medium, read-out: MIC
  MIC: 6.3 µg/mL (≈ 11.7 µM)
[32]; Ent. cloacae A21006, Mueller-Hinton medium, read-out: MIC
  MIC: 6.3 µg/mL (≈ 11.7 µM)

## NCC[C@H](O)C(=O)N[C@@H]1C[C@H](N)[C@@H](O[C@H]2O[C@H](CN)[C@@H](O)[C@H](O)[C@H]2N)[C@H](O[C@@H]2O[C@H](CO)[C@H](O)[C@H]2O)[C@H]1O [Bu-1709A1, butirosin A]
[1]; ML1630
  MIC: 3.1 µg/mL (≈ 5.58 µM)
[2]; A20895
  MIC: 3.1 µg/mL (≈ 5.58 µM)
[3]; NO.130
  MIC: 25 µg/mL (≈ 45 µM)
[4]; D11
  MIC: 0.8 µg/mL (≈ 1.44 µM)
[5]
  MIC: 1.6 µg/mL (≈ 2.88 µM)
[6]; A9930
  MIC: 6.3 µg/mL (≈ 11.3 µM)
[7]; D137
  MIC: 25 µg/mL (≈ 45 µM)
[8]; A20364
  MIC: 1.6 µg/mL (≈ 2.88 µM)
[9]; D193
  MIC: 3.1 µg/mL (≈ 5.58 µM)
[10]; A21247
  MIC: 6.3 µg/mL (≈ 11.3 µM)
[11]; A20635
  MIC: > 100 µg/mL
[12]
  MIC: 0.8 µg/mL (≈ 1.44 µM)
[13]; A20107
  MIC: 50 µg/mL (≈ 90 µM)
[14]; A20896
  MIC: > 100 µg/mL
[15]; R5
  MIC: 3.1 µg/mL (≈ 5.58 µM)
[16]
  MIC: > 100 µg/mL
[17]; A20019
  MIC: 6.3 µg/mL (≈ 11.3 µM)
[18]; A20732
  MIC: 1.6 µg/mL (≈ 2.88 µM)
[19]; A20601
  MIC: 50 µg/mL (≈ 90 µM)
[20]
  MIC: 1.6 µg/mL (≈ 2.88 µM)
[21]; Pseudomonas, SP.A20621
  MIC: 100 µg/mL (≈ 180 µM)
[22]; A20239
  MIC: 25 µg/mL (≈ 45 µM)
[23]; A9554
  MIC: 1.6 µg/mL (≈ 2.88 µM)
[24]
  MIC: 100 µg/mL (≈ 180 µM)
[25]
  MIC: 0.8 µg/mL (≈ 1.44 µM)
[26]; A9436
  MIC: 0.4 µg/mL (≈ 0.72 µM)
[27]; A20031
  MIC: 1.6 µg/mL (≈ 2.88 µM)
[28]
  MIC: > 100 µg/mL
[29]; A20894
  MIC: > 100 µg/mL
[30]
  MIC: > 100 µg/mL
[31]; D133
  MIC: 6.3 µg/mL (≈ 11.3 µM)
[32]; A21006
  MIC: > 100 µg/mL
